# Measured values: patent US20250214977A1, “STAT6 INHIBITORS AND USES THEREOF” (Kymera Therapeutics, Inc., priority 2024, published 2025)
# pIC50: −log10 of the molar value.
# Test system: Phosphorylation of STAT6 in human A549 cells
# Test: Phosphorylated STAT6 (pSTAT6) flow cytometry assay in human A549 cells
# Assay type: cell-based
# Settings: read-out: STAT6 IL4 pSTAT6 assay in A549 cells: Average IC50
# Source text: Example 3. Phosphorylated STAT6 (pSTAT6) Flow Cytometry Assay in Human A549 Cells
# Phosphorylation of STAT6 in human A549 cells was quantitatively measured using flow cytometry technology.
row,Structure (SMILES),pIC50
1,COc1ccccc1-c1cc(C2=CCCN(C(=O)CCn3ccnn3)C2)c(F)c2[nH]c(C(=O)N3CCN(c4c(OC)cccc4Oc4ccccc4)CC3)cc12 [Example I-414],6.00 to 7.00
2,COc1cnccc1-c1cc(C2=CCCN(C(C)=O)C2)c(F)c2sc(C(=O)N(C)C)cc12 [Example I-554],6.00 to 7.00
3,COc1cnccc1-c1cc(C2=CCCN(C(=O)CCn3ccnn3)C2)c(F)c2[nH]c(C(=O)N3Cc4cnn(C)c4C3)cc12 [Example I-502],4.00 to 5.00
4,COc1cc(F)cnc1N1CCN(C(=O)c2cc3c(-c4ccncc4C(C)C)cc(C4=CCCN(C(=O)CCn5ccnn5)C4)c(F)c3[nH]2)CC1 [Example I-703],4.00 to 5.00
5,"COc1cccnc1N1CCN(C(=O)c2cc3c(-n4ccccc4=O)cc(C4=CCCN(C(=O)CCn5ccnn5)C4)c(F)c3[nH]2)CC1 [Example I-807, 1-(6-(1-(3-(1H-1,2,3-triazol-1-yl)propanoyl)-1,2,5,6-tetrahydropyridin-3-yl)-7-fluoro-2-(4-(3-methoxypyridin-2-yl)piperazine-1-carbonyl)-1H-indol-4-yl)pyridin-2(1H)-one]",> 7.00
6,CC(=O)c1ccccc1-c1cc(C2=CCCN(C(C)=O)C2)c(F)c2[nH]c(C(=O)N(C)C)cc12 [Example I-1097],< 4.00
7,COc1cc(F)cnc1N1CCN(C(=O)c2cc3c(C4=Cc5ccccc5C4)cc(C4=CCCN(C(=O)CCn5ccnn5)C4)c(F)c3[nH]2)CC1 [Example I-1161],6.00 to 7.00
8,CCc1cc(C)ncc1-c1cc(C2=CCCN(C(=O)CCn3cccn3)C2)c(F)c2[nH]c(C(=O)N3CCN(c4nc(C)c(F)cc4OC)CC3)cc12 [Example I-738],> 7.00
9,COc1ccccc1-c1cc(C2=CCCN(C(=O)CCn3ccnn3)C2)c(F)c2[nH]c(C(=O)N3CCN(c4ncccc4C4CC4)CC3)cc12 [Example I-495],< 4.00
10,CNc1ccc(-c2cc(C3=CCCN(C(=O)C4Cc5ccccc5CN4C=O)C3)cc3[nH]c(C(=O)N(C)C)cc23)cc1 (stereo not drawn) [Example I-551],> 7.00
11,COc1ccccc1-c1cc(C2=CCCN(C(=O)CCn3ccnn3)C2)c(F)c2[nH]c(C(=O)N3CCN(c4ccccc4Cl)CC3)cc12 [Example I-423],> 7.00
12,COc1cccnc1N1CCN(C(=O)c2cc3c(C4CCN(C)C4)cc(C4=CCCN(C(=O)CCn5ccnn5)C4)c(F)c3[nH]2)CC1 (stereo not drawn) [Example I-585],> 7.00
13,COc1cnc(N2CCN(C(=O)c3cc4c(-c5cnccc5OC)cc(C5=CCCN(C(=O)CCn6ccnn6)C5)c(F)c4[nH]3)CC2)c(OC)c1 [Example I-437],> 7.00
14,CN(C)C(=O)c1cc2cc(C3=CCCN(C(=O)CCn4ccnn4)C3)cc(-c3ccc4[nH]ccc4c3)c2o1 [Example I-1071],> 7.00
15,CCn1nccc1-c1cc(C(=O)N2Cc3cnn(CC)c3C2)cc2cc(C3=CCCN(C(C)=O)C3)n(CC3CC3)c12 [Example I-1045],6.00 to 7.00
16,COc1ccccc1-c1cc(C2=CCCN(C(=O)CCn3ccnn3)C2)c(F)c2[nH]c(C(=O)N3CCN(c4ncccc4OC)CC3)cc12 [Example I-326],4.00 to 5.00
17,COc1cc(F)cnc1N1CCN(C(=O)c2cc3c(-c4ccc(C(O)C(F)(F)F)cc4)cc(C4=CCCN(C(=O)CCn5ccnn5)C4)c(F)c3[nH]2)CC1 (stereo not drawn) [Example I-1145],> 7.00
18,COc1ccc(C)cc1-c1cc(C2=CCCN(C(=O)C3Cc4ccccc4CN3C=O)C2)cc2cc(C(=O)N(C)C)oc12 (racemic) [Example I-1196],> 7.00

row,Structure (SMILES),pIC50
1,COc1cc(F)ccc1-c1cc(C2=CCCN(C(=O)CCn3ccnn3)C2)c(F)c2[nH]c(C(=O)N3CCN(c4ccc(F)c(OC)n4)CC3)cc12 [Example I-1107],6.00 to 7.00
2,COc1ccncc1-c1cc(C2=CCCN(C(C)=O)C2)c(F)c2[nH]c(C(=O)N3Cc4cnn(C)c4C3)cc12 [Example I-701],4.00 to 5.00
3,COc1ccccc1-c1cc(C2=CCCN(C(=O)CCn3ccnn3)C2)c(F)c2[nH]c(C(=O)N3CCc4c(cnn4C)C3)cc12 [Example I-518],> 7.00
4,CCc1ccncc1-c1cc(C2=CCCN(C(C)=O)C2)c(F)c2[nH]c(C(=O)N3CCN(c4ncccc4OC)CC3)cc12 [Example I-619],6.00 to 7.00
5,COc1ccccc1N1CCN(C(=O)c2cc3c(-c4cnccc4OCF)cc(C4=CCCN(C(=O)CCn5ccnn5)C4)c(F)c3[nH]2)CC1 [Example I-405],< 4.00
6,COc1ccc(N2CCN(C(=O)c3cc4c(-c5ccccc5OC)cc(C5=CCCN(C(=O)CCn6ccnn6)C5)c(F)c4[nH]3)CC2)cc1 [Example I-960],> 7.00
7,COc1ccccc1-c1cc(C2=CCCN(C(=O)CCn3ccnn3)C2)c(F)c2[nH]c(C(=O)N3CCN(c4ccc5ccccc5c4OC)CC3)cc12 [Example I-956],5.00 to 6.00
8,COc1cc(F)cnc1N1CCN(C(=O)c2cc3c(C4=CCC(C#N)CC4)cc(C4=CCCN(C(=O)CCn5ccnn5)C4)c(F)c3[nH]2)CC1 (stereo not drawn) [Example I-1141],> 7.00
9,COc1ccccc1-c1cc(C(=O)N2CCN(c3ncc(F)cc3OC)CC2)cc2cc(C3=CCCN(C(=O)CCn4ccnn4)C3)n(CC3CC3)c12 [Example I-506],4.00 to 5.00
10,CN(C)C(=O)c1cc2c(-c3ccccc3S(C)(=O)=O)cc(C3=CCCN(C(=O)CCn4ccnn4)C3)c(F)c2[nH]1 [Example I-1068],> 7.00
11,COc1ccncc1-c1cc(C2CN(C(=O)CCn3ccnn3)CC(F)(F)C2)c(F)c2[nH]c(C(=O)N3CCN(c4ncc(F)cc4OC)CC3)cc12 (stereo not drawn) [Example I-513],> 7.00
12,COc1ccccc1-c1cc(C2=CCCN(C(=O)CCn3cccn3)C2)c(F)c2[nH]c(C(=O)N3CCN(c4cc5cc[nH]c5nc4C#N)CC3)cc12 [Example I-494],< 4.00
13,Cc1ccccc1-c1cc(C2=CCCN(C(=O)CCn3ccnn3)C2)cc2cc(C(=O)N(C)C)oc12 [Example I-1086],> 7.00
14,CCCCOc1ccc(-c2cc(C3=CCCN(C(=O)CCn4ccnn4)C3)c(F)c3[nH]c(C(=O)N4CCN(c5ncc(F)cc5OC)CC4)cc23)cc1 [Example I-1127],6.00 to 7.00
15,COc1ccccc1-c1cc(C2=CCCN(C(=O)CCn3ccnn3)C2)c(F)c2[nH]c(C(=O)Nc3cccn(C)c3=O)cc12 [Example I-1027],6.00 to 7.00
16,CC(=O)N1CCC=C(c2cc(-c3ccc(C)nc3)c3cc(C(=O)N(C)C)[nH]c3c2F)C1 [Example I-885],6.00 to 7.00
17,CCc1cnccc1-c1cc(C2=CCCN(C(=O)CCn3cccn3)C2)c(F)c2[nH]c(C(=O)N3CCN(c4ncc(OC)cc4OC)CC3)cc12 [Example I-684],> 7.00
18,COc1cc(F)cnc1N1CCN(C(=O)c2cc3c(-c4cncc(OC(C)C)c4)cc(C4=CCCN(C(=O)CCn5ccnn5)C4)c(F)c3[nH]2)CC1 [Example I-655],> 7.00

# Other lines, results leading:
row,pIC50,Structure (SMILES)
1,> 7.00,COc1cccc(N2CCN(C(=O)c3cc4c(-c5ccc(N(C)C)cc5OC)cc(C5=CCCN(C(=O)CCn6ccnn6)C5)c(F)c4[nH]3)CC2)n1 [Example I-1109]
2,> 7.00,COc1ccncc1-c1cc(C2=CCCN(C(=O)CCn3ccnn3)C2)c(F)c2[nH]c(C(=O)N3CCN(c4ccc(C#N)cc4OC)CC3)cc12 [Example I-474]
3,> 7.00,CCCOc1ncccc1-c1cc(C2=CCCN(C(=O)CCn3ccnn3)C2)c(F)c2[nH]c(C(=O)N3CCN(c4ncc(F)cc4OC)CC3)cc12 [Example I-652]
4,> 7.00,COc1ccccc1-c1cc(C2=CCCN(C(=O)CCn3ccnn3)C2)c(F)c2[nH]c(C(=O)N3CCN(c4ncccc4C(C)C)CC3)cc12 [Example I-333]
5,> 7.00,COc1ccccc1-c1cc(C2=CCCN(C(=O)CCn3ccnn3)C2)c(F)c2[nH]c(C(=O)N3CCN(c4c(C)cc[nH]c4=O)CC3)cc12 [Example I-1030]
6,> 7.00,COc1cc(F)cnc1N1CCN(C(=O)c2cc3c(-c4ccc(=O)n(Cc5ccccc5)c4)cc(C4=CCCN(C(=O)CCn5ccnn5)C4)c(F)c3[nH]2)CC1 [Example I-1136]
7,> 7.00,COc1cc(F)cnc1N1CCN(C(=O)c2cc3c(-c4ccc(C(=O)N5CCCC5)c(F)c4)cc(C4=CCCN(C(=O)CCn5ccnn5)C4)c(F)c3[nH]2)CC1 [Example I-1144]
8,> 7.00,COc1ccccc1-c1cc(C2=CCCN(C(=O)CCn3ccnn3)C2)c(F)c2[nH]c(C(=O)N3CCc4nocc4C3)cc12 [Example I-1029]
9,> 7.00,COCCOc1cccnc1N1CCN(C(=O)c2cc3c(-c4ccccc4OC)cc(C4=CCCN(C(=O)CCn5ccnn5)C4)c(F)c3[nH]2)CC1 [Example I-330]
10,> 7.00,CCCOc1ncc(C)cc1-c1cc(C2=CCCN(C(=O)CCn3ccnn3)C2)c(F)c2[nH]c(C(=O)N3CCN(c4ncc(F)cc4OC)CC3)cc12 [Example I-654]
11,> 7.00,COc1ccccc1-c1cc(C2=CCCN(C(=O)CCn3ccnn3)C2)c(F)c2[nH]c(C(=O)N3CC=C(C4CC4)CC3)cc12 [Example I-511]
12,> 7.00,COc1ccccc1-c1cc(C2=CCCN(C(=O)CCn3ccnn3)C2)c(F)c2[nH]c(C(=O)N3CCN(c4nccc5ccncc45)CC3)cc12 [Example I-355]
13,> 7.00,CCC1=C(c2cc(C3=CCCN(C(=O)CCn4ccnn4)C3)c(F)c3[nH]c(C(=O)N4CCN(c5ncc(F)cc5OC)CC4)cc23)CNCC1 [Example I-743]
14,> 7.00,COc1ccccc1-c1cc(C2=CCCN(C(=O)CCn3ccnn3)C2)c(F)c2[nH]c(C(=O)N3CCN(c4nnn(C)c4C)CC3)cc12 [Example I-778]
15,> 7.00,COc1ccncc1-c1cc(C2=CCCN(C(=O)CCn3ccnn3)C2)c(F)c2[nH]c(C(=O)N3CCN(C4CC4)CC3)cc12 [Example I-587]
16,> 7.00,"COc1ccccc1-c1cc(C2=CCCN(C(=O)CCn3ccnn3)C2)c(F)c2[nH]c(C(=O)N3CCN(c4ncccc4OC(F)(F)F)CC3)cc12 [Example I-331, 1-(5-(7-fluoro-4-(2-methoxyphenyl)-2-(4-(3-(trifluoromethoxy)pyridin-2-yl)piperazine-1-carbonyl)-1H-indol-6-yl)-3,6-dihydropyridin-1(2H)-yl)-3-(1H-1,2,3-triazol-1-yl)propan-1-one]"
17,> 7.00,COc1ccccc1-c1cc(C2=CCCN(C(=O)CCn3ccnn3)C2)c(F)c2[nH]c(C(=O)N3CCN(c4nccc5ccccc45)CC3)cc12 [Example I-363]
18,> 7.00,Cc1ccc(C#N)cc1-c1cc(C2=CCCN(C(=O)CCn3ccnn3)C2)cc2cc(C(=O)N(C)C)oc12 [Example I-1079]
